# pIC50: −log10 of the molar value.
# Experiments:
# [1] = target: CYP2C19 (Homo sapiens, UniProt P33261); conditions: recombinant enzyme
# Procedure: (§1) Control incubations were performed for each assay with appropriate positive inhibitory controls.
# [2] = system: animal substance use models; conditions: i.p.; cited from earlier work
# [3] = Pharmacokinetics in rats; assay type: in vivo, rat
# Procedure: 18-MC is rapidly absorbed and distributed into the brain and fat tissues in rats dosed with 40 mg/kg p.o. or i.p. The estimated volume of distribution is 8 L/kg. 18-MC levels in fat were 4.2 μM and 2.5 μM at 2 hours and 24 hours, respectively. […] On oral administration, it appears that the major metabolites are either M4 or M5, depending on the animal species tested. M4 and M5 are the primary circulating drug species because they are present at proportions greater than 18-MC. […] In the animal species tested its half-life is less than 2 hours at lower doses. At high doses a long elimination phase is evident (ranging from 9 to 20 hours in rats). 18-MC is highly protein bound (95-98%).
# [4] = target: T1, rat α3β4 nicotinic acetylcholine receptor (nAChR) (Rattus norvegicus, UniProt P04757+P12392); assay: cell-based
# T1 construct: expressed in transfected cells; host or cells: HEK 293 (ATCC CRL1573), transient, Lipofectamine 2000
# T1 sequence (P04757 26-499): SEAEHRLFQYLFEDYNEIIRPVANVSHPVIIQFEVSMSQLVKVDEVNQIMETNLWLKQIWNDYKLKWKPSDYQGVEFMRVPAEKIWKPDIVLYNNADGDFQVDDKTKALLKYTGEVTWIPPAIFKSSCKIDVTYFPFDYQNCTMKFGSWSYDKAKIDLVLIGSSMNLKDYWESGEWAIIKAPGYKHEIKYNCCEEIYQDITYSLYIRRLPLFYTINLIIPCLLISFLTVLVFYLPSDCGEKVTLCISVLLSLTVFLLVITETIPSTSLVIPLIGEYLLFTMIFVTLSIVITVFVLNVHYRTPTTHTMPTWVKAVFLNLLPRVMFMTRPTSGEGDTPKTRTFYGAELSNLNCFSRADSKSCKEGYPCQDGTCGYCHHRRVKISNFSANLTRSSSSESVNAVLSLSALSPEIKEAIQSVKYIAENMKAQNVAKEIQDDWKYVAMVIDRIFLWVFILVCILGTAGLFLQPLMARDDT
# T1 sequence (P12392 21-495): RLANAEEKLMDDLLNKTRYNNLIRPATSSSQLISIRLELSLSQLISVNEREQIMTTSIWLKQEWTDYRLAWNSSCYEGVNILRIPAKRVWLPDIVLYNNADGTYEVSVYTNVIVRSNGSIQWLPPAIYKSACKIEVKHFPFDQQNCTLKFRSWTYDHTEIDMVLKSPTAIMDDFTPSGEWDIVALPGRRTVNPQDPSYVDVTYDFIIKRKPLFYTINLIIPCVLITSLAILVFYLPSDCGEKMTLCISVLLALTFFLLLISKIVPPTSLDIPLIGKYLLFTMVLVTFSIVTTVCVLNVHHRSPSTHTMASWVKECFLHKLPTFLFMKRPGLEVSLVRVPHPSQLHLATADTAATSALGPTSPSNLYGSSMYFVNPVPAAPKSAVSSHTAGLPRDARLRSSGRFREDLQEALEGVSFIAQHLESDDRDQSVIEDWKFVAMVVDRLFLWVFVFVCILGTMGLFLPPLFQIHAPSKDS
# [5] = target: CYP2C9 (Homo sapiens, UniProt P11712); conditions: recombinant enzyme
# Chain of CYP2C9 (P11712 whole entry): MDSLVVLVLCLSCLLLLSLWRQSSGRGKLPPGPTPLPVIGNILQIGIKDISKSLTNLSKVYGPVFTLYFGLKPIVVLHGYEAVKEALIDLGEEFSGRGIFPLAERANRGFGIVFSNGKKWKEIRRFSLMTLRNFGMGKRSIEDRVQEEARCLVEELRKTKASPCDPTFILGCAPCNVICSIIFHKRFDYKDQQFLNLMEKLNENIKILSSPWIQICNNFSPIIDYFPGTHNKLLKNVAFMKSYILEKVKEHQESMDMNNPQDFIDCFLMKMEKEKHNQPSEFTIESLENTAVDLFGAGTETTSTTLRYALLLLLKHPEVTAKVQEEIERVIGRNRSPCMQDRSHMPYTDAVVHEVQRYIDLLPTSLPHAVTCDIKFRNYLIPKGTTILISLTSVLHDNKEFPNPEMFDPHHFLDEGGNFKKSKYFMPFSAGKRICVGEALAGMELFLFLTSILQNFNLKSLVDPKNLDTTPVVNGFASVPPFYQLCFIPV
# Procedure: as §1
# [6] = system: polychromatic erythrocytes in mouse bone marrow; assay: Mouse bone marrow in vivo micronucleus assay
# Procedure: Treatment resulted and clinical signs of lethargy and piloerection at doses of 200-400 mg/kg and in mortality of male and female ICR mice at doses of 300 and 400 mg/kg. The highest non-lethal dose was 250 mg/kg.
# These doses were based upon prior toxicology data indicating higher doses were associated with mortality in this species. […] A positive control group received a single oral dose of 60 mg/kg cyclophosphamide on Day 2, the day prior to the scheduled euthanasia. Each group consisted of 6 males. Males only were used as no significant differences in response related to gender were expected based upon prior toxicology and toxicokinetic data. All animals were euthanized on Day 3, the day following the final dose and discarded following bone marrow collection.
# All animals were observed twice daily for mortality and moribundity. Bone marrow collection for micronucleus evaluation was performed for 5 of the 6 animals in each group at the scheduled euthanasia (Day 3). All animals were discarded without necropsy. Bone marrow smears were prepared, and the coded slides were counted for polychromatic, normochromatic, and micronucleated polychromatic erythrocytes following the final bone marrow sample collection on Day 3.
# [7] = Toxicokinetics, 14-day oral gavage study in CD-1 mice; assay type: in vivo, mouse
# Procedure: The relative metabolite concentrations were determined from plasma samples obtained on the last day of dosing in the 25 mg/kg/day group of animals using a UPLC/MS/MS method. Major metabolites were identified as M2 and M4, followed by M8 and M9. The parent 18-MC exposure was less than 1% of the total drug related material. No significant sex differences were observed.
# All test article-treated animals underwent up-titration of dosage levels prior to reaching the maximum daily dose, which was administered for 14 consecutive days. […] The dose volume was 10 mL/kg for all groups. Groups 1 and 4 each consisted of 25 animals/sex and Groups 2-3 each consisted of 20 animals for each sex. Following 14 days of dose administration, 15 mice/sex/toxicology group were euthanized; the remaining 5, (10 for the control and high dose group) mice/sex/toxicology group were euthanized following a 14-day nondosing (recovery) period. Following the final blood collection (study day 13), all toxicokinetic animals (from a satellite group of 18 animals/sex/dose level) were euthanized.
# [8] = system: Sprague Dawley rats; assay: Modified Irwin test, pilot dose finding study, female rats; assay type: in vivo, rat; conditions: single oral dose 30-800 mg/kg
# Procedure: Under the conditions of this study, the no-observed-effect level (NOEL) and no-observed-adverse-effect level (NOAEL) were considered to be 90 mg/kg and 400 mg/kg, respectively.
# [9] = after 14 days of 25 mg/kg 18-MC HCl
# Chain of CYP2C19 (P33261 whole entry): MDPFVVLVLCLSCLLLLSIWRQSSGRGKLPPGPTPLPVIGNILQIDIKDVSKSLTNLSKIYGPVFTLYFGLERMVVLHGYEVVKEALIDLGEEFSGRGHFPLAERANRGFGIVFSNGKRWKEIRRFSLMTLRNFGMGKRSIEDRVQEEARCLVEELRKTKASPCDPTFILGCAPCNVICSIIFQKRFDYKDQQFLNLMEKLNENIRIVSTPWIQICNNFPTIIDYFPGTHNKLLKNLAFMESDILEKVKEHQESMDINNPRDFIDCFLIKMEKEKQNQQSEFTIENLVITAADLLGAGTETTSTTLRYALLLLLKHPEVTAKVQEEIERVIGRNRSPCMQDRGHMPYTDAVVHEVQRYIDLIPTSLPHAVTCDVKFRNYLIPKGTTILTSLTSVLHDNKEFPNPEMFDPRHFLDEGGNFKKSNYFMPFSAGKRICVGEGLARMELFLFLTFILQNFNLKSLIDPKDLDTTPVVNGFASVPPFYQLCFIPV
smiles,measurement,setting,value
"COCCC1CC2CN3CCc4c([nH]c5ccccc45)C(C(=O)OC)(C2)C13.Cl (stereo not drawn) [18-MC HCl, 18-Methoxycoronaridine hydrochloride]",pIC50,[1],> 5.82
same,lowest dosage that significantly reduces drug self-administration,[2],≥ 10 mg/kg
same,oral bioavailability,[3]; 60 mg/kg,about 8%
same,Max Inhibition 20-30 μM,[4],98 ± 1%
same,Persistent Inhibition at 1 sec,[4],88 ± 3%
same,pIC50,[5],> 5.82
same,lethality,"[6]; GLP, 120 mg/kg/day group, within 3 hours of dosing",Lethality was observed in a single animal
same,incidence of micro-nucleated polychromatic erythrocytes (MPCE),"[6]; non-GLP, 250 mg/kg and less",No significant increase
same,highest non-lethal dose,"[6]; non-GLP, single oral dose, suspension in PBS pH 7.4, ICR mice",250 mg/kg
same,AUC(0-24),"[7]; Day 0, Female, 25 mg/kg/day",77.8 ng·h/mL
same,Cmax,"[7]; Day 0, Female, 25 mg/kg/day",30.8 ng/mL
same,Tmax,"[7]; Day 0, Female, 25 mg/kg/day",30 min
same,AUC(0-24),"[7]; Day 0, Female, 50 mg/kg/day",56.2 ng·h/mL
same,Cmax,"[7]; Day 0, Female, 50 mg/kg/day",23.7 ng/mL
same,Tmax,"[7]; Day 0, Female, 50 mg/kg/day",30 min
same,AUC(0-24),"[7]; Day 0, Female, 100 mg/kg/day",187 ng·h/mL
same,Cmax,"[7]; Day 0, Female, 100 mg/kg/day",51.8 ng/mL
same,Tmax,"[7]; Day 0, Female, 100 mg/kg/day",60 min
same,AUC(0-24),"[7]; Day 0, Male, 25 mg/kg/day",66.6 ng·h/mL
same,Cmax,"[7]; Day 0, Male, 25 mg/kg/day",19.4 ng/mL
same,Tmax,"[7]; Day 0, Male, 25 mg/kg/day",30 min
same,AUC(0-24),"[7]; Day 0, Male, 50 mg/kg/day",108 ng·h/mL
same,Cmax,"[7]; Day 0, Male, 50 mg/kg/day",44.3 ng/mL
same,Tmax,"[7]; Day 0, Male, 50 mg/kg/day",30 min
same,AUC(0-24),"[7]; Day 0, Male, 100 mg/kg/day",349 ng·h/mL
same,Cmax,"[7]; Day 0, Male, 100 mg/kg/day",131 ng/mL
same,Tmax,"[7]; Day 0, Male, 100 mg/kg/day",60 min
same,AUC(0-24),"[7]; Day 13, Female, 25 mg/kg/day",54.5 ng·h/mL
same,Cmax,"[7]; Day 13, Female, 25 mg/kg/day",25.6 ng/mL
same,Tmax,"[7]; Day 13, Female, 25 mg/kg/day",30 min
same,AUC(0-24),"[7]; Day 13, Female, 50 mg/kg/day",119 ng·h/mL
same,Cmax,"[7]; Day 13, Female, 50 mg/kg/day",49.9 ng/mL
same,Tmax,"[7]; Day 13, Female, 50 mg/kg/day",30 min
same,AUC(0-24),"[7]; Day 13, Female, 100 mg/kg/day",188 ng·h/mL
same,Cmax,"[7]; Day 13, Female, 100 mg/kg/day",44.0 ng/mL
same,T1/2,"[7]; Day 13, Female, 100 mg/kg/day",147 min
same,Tmax,"[7]; Day 13, Female, 100 mg/kg/day",30 min
same,AUC(0-24),"[7]; Day 13, Male, 25 mg/kg/day",50.5 ng·h/mL
same,Cmax,"[7]; Day 13, Male, 25 mg/kg/day",23.6 ng/mL
same,Tmax,"[7]; Day 13, Male, 25 mg/kg/day",30 min
same,AUC(0-24),"[7]; Day 13, Male, 50 mg/kg/day",164 ng·h/mL
same,Cmax,"[7]; Day 13, Male, 50 mg/kg/day",92.9 ng/mL
same,T1/2,"[7]; Day 13, Male, 50 mg/kg/day",107 min
same,Tmax,"[7]; Day 13, Male, 50 mg/kg/day",30 min
same,AUC(0-24),"[7]; Day 13, Male, 100 mg/kg/day",329 ng·h/mL
same,Cmax,"[7]; Day 13, Male, 100 mg/kg/day",136 ng/mL
same,T1/2,"[7]; Day 13, Male, 100 mg/kg/day",116 min
same,Tmax,"[7]; Day 13, Male, 100 mg/kg/day",30 min
same,no-observed-adverse-effect level (NOAEL),[8],400 mg/kg
same,no-observed-effect level (NOEL),[8],90 mg/kg
"COCC[C@H]1CC2CN3CCc4c([nH]c5ccccc45)[C@](C(=O)OC)(C2)[C@H]13 [18-MC, 18-methoxycoronaridine]",pIC50,[1],5.31
same,lowest dosage that significantly reduces drug self-administration,[2],≥ 10 mg/kg
same,estimated volume of distribution,[3]; 40 mg/kg p.o. or i.p.,8 L/kg
same,oral bioavailability for total drug substance (AUC of 18-MC and its metabolites),[3]; 60 mg/kg,about 25%
same,18-MC level in fat,[3]; 2 hours,4.2 µM
same,18-MC level in fat,[3]; 24 hours,2.5 µM
same,Ipeak,[4],50 ± 4% of ACh
same,Iss,[4],34 ± 5% of peak
same,τdecay,[4],298 ± 23 ms
same,pIC50,"[4]; read-out: IC50, inhibition of ACh-evoked currents",6.10
same,pIC50,[5],5.39
same,bone marrow cytotoxicity and clastogenic activity,"[6]; GLP, 50, 75, 120 mg/kg/day for 3 days",negative response
same,AUC,[7]; [9],251 ng·h/mL
same,Cmax,[7]; [9],105 ng/mL
same,no-observed-adverse-effect level (NOAEL),[8],400 mg/kg
same,no-observed-effect level (NOEL),[8],90 mg/kg
